# Reference: patent publication US20110166196A1, “TREATMENT AND PROPHYLAXIS OF EPILEPSY AND FEBRILE SEIZURES” (priority 2008, published 2011)
# Assays:
# [1] = tested on: excitatory synapses onto CA1 hippocampal interneurons; assay: HFS-induced long-term depression (LTD) of EPSCs, whole-cell recording in hippocampal slices; type: cell-based, rat
# From the text: (§1) The basic methods have been detailed previously (McMahon and Kauer, 1997). Sprague-Dawley rats (15-22 days old) were used in the majority of experiments. In addition, we used TRPV1^−/− mice (Caterina et al., 2000) and wild-type C57BL/6 mice aged between 15 and 21 days (Jackson Laboratory). The TRPV1^−/− mice we used have been backcrossed at least 10 times onto a C57BL/6 background and were obtained from homozygous breeding pairs. Control mice were therefore not littermates but were age-matched, wild-type C57BL/6 animals received from the same supplier in the same shipment. All animal protocols were approved by the Brown University Institutional Animal Care and Use Committee. For mouse experiments, only one brain slice per mouse was used for each experiment, so that reported ‘n’ numbers represent the number of animals. Animals were anaesthetized using halothane or isoflurane and quickly decapitated. The brain was rapidly removed and 300 μm thick coronal slices prepared and stored for at least one hour submerged on a net in artificial cerebrospinal fluid (ACSF) containing in mM: 119 NaCl, 26 NaHCO3, 2.5 KCl, 1.0 NaH2PO4, 2.5 CaCl2, 1.3 MgSO4 and 11 dextrose, saturated with 95% O2/5% CO2 (pH 7.4). Slices were then transferred to a submerged recording chamber and bathed in oxygenated ACSF (28-32° C.) containing elevated divalent cations to reduce epileptiform activity (4 mM CaCl2 and 4 mM MgCl2, replacing MgSO4). A surgical cut was made between the CA3 and CA1 regions. The storage of slices submerged on a net rather than in an interface chamber on filter paper may be important in maintaining slice health and improving the likelihood of observing LTD.
# (§2) Slices were continuously perfused with ACSF warmed to 28-32° C. at a flow rate of 1-2 ml/min. Picrotoxin (100 μM) and D-AP5 (50 μM) were added to block GABAA receptor- and NMDAR-mediated synaptic transmission. Whole-cell patch clamp recordings were made from interneurons identified visually in the CA1 stratum radiatum of the hippocampus. […] Patch pipettes were filled with internal recording solution containing in mM: 117 cesium gluconate, 2.8 NaCl, 5 MgCl2, 20 HEPES, 2 ATP-Na^+, 0.3 GTP-Na^+ and 0.6 EGTA. In some experiments 2 μM capsazepine, 140 nM baicalein, or 250 μM GDPβS were also included in the intracellular patch pipette solution. In experiments with BAPTA-containing patch electrodes, EGTA was omitted from the intracellular solution and 25 or 40 mM BAPTA replaced a corresponding amount of cesium gluconate. EPSCs were stimulated at 0.1 Hz (100 μsec) using a bipolar stainless steel stimulating electrode placed in stratum radiatum at least 200 μm from the recorded cell. CA1 interneurons were voltage clamped at −65 mV (not corrected for the liquid junction potential, of ˜10 mV), and EPSCs were evoked by paired pulses with an interval of 50 msec (stimulus intensity typically 50-400 μA). In early experiments, we measured rectification ratios of EPSCs evoked at +40 mV/−60 mV in the presence of 50 μM D-AP5, measured at the time of peak inward synaptic current seen at −70 mV (Lei and McBain, 2004).
# High-frequency stimulation was used to induce LTD (HFS; two 1 sec trains at 100 Hz, inter-train interval 20 sec, at 1.5 times test current intensity) with the neuron held in current-clamp mode, so that the HFS trains were delivered with the membrane potential free to vary. Receptor antagonists were added directly to the ACSF at known concentrations for at least 10 minutes prior to HFS. Control experiments were interleaved with those experiments using receptor antagonists or involving slices from TRPVl^−/− mice. The cell input resistance and series resistance were monitored throughout each experiment; cells were discarded if these values changed by more than 10% during the experiment.
# [2] = tested on: excitatory synapses onto CA1 hippocampal interneurons; assay: Drug-induced depression of EPSC amplitudes, whole-cell recording in hippocampal slices; type: cell-based, rat
# From the text: as §1, §2
# (§3) The maximal initial slope of fEPSPs was calculated using a LabVIEW-based program (National Instruments). The peak amplitude of each EPSC was measured by comparing a 10 msec time period immediately prior to the stimulus with the peak of the EPSC using this program as well. Occasionally polysynaptic responses were evoked, and in these cases, only the initial monosynaptic event was measured. To positively identify LTD, EPSCs measured every 10 seconds were averaged in 1 minute intervals. EPSC amplitude values were normalized to control pre-HFS EPSC amplitude values (baseline period of at least 5 minutes prior to HFS) and subjected to analysis of variance (ANOVA) repeated measures analysis with a post-hoc Dunnett's test (GraphPad Prism, Version 4).
# [3] = tested on: CA1 pyramidal neurons from trpv1−/− mice; assay: Residual heat-activated current in CA1 pyramidal neurons from trpv1-/- mice; type: cell-based, mouse; conditions: 10 μM ruthenium red bath; trpv1−/− CA1 neurons (34.6±8.4 pA without); n=5
# [4] = tested on: synapses between CA3 and CA1 pyramidal cells; assay: Field EPSP recordings in hippocampal slices; type: cell-based, rat; conditions: 100 nM 12-(S)-HPETE; P=0.83, n=5
# Protocol: The maximal initial slope of fEPSPs was calculated using a LabVIEW-based program (National Instruments). The peak amplitude of each EPSC was measured by comparing a 10 msec time period immediately prior to the stimulus with the peak of the EPSC using this program as well. Occasionally polysynaptic responses were evoked, and in these cases, only the initial monosynaptic event was measured. To positively identify LTD, EPSCs measured every 10 seconds were averaged in 1 minute intervals. EPSC amplitude values were normalized to control pre-HFS EPSC amplitude values (baseline period of at least 5 minutes prior to HFS) and subjected to analysis of variance (ANOVA) repeated measures analysis with a post-hoc Dunnett's test (GraphPad Prism, Version 4). […] EPSC amplitude values 15 to 20 minutes post-HFS were compared between control LTD experiments and those carried out either in transgenic TRPV1^−/− mice, or in the presence of drug using a t-test (unpaired, two-tailed, with Welch's correction if the variances between the groups were unequal). To calculate the effects of capsaicin, 12-(S)-HPETE or WIN 55,212-2 application on basal excitatory glutamatergic transmission, normalized EPSC amplitudes or fEPSP slopes were averaged in the final 5 minutes of drug application and compared with EPSCs/EPSPs 5 minutes prior to drug application. In addition, to measure capsaicin's effects on holding current, the peak change in holding current was measured during bath application of 3 μM capsaicin. The n-values reported refer to the number of slices. All combined data are expressed as mean±the standard error of the mean (s.e.m.).
# [5] = tested on: excitatory synapses onto CA1 hippocampal interneurons; assay: Synaptic failure analysis using minimal stimulation; type: cell-based, rat; conditions: 12-(S)-HPETE 100 nM; pre-application 35.2±1.9%; n=6
# Protocol: as §2, with “CA1 interneurons were voltage clamped at −65 mV (not corrected for the liquid junction potential, of ˜10 mV), and EPSCs were evoked by paired pulses with an interval of 50 msec (stimulus intensity typically 50-400 μA).” left out
# [6] = tested on: excitatory synapses on interneurons; assay: Drug-induced depression of EPSC amplitudes in slices from TRPV1-/- and C57BL/6 wild-type mice; type: cell-based, mouse; conditions: 12-(S)-HPETE 100 nM; TRPV1−/− mice; P=0.33, n=6
# From the text: The basic methods have been detailed previously (McMahon and Kauer, 1997). Sprague-Dawley rats (15-22 days old) were used in the majority of experiments. In addition, we used TRPV1^−/− mice (Caterina et al., 2000) and wild-type C57BL/6 mice aged between 15 and 21 days (Jackson Laboratory). The TRPV1^−/− mice we used have been backcrossed at least 10 times onto a C57BL/6 background and were obtained from homozygous breeding pairs. Control mice were therefore not littermates but were age-matched, wild-type C57BL/6 animals received from the same supplier in the same shipment. All animal protocols were approved by the Brown University Institutional Animal Care and Use Committee. For mouse experiments, only one brain slice per mouse was used for each experiment, so that reported ‘n’ numbers represent the number of animals. Animals were anaesthetized using halothane or isoflurane and quickly decapitated. […]
# Slices were continuously perfused with ACSF warmed to 28-32° C. at a flow rate of 1-2 ml/min. […] EPSCs were stimulated at 0.1 Hz (100 μsec) using a bipolar stainless steel stimulating electrode placed in stratum radiatum at least 200 μm from the recorded cell. […] In early experiments, we measured rectification ratios of EPSCs evoked at +40 mV/−60 mV in the presence of 50 μM D-AP5, measured at the time of peak inward synaptic current seen at −70 mV (Lei and McBain, 2004).
# as §3, with “EPSC amplitude values were normalized to control pre-HFS EPSC amplitude values (baseline period of at least 5 minutes prior to HFS) and subjected to analysis of variance (ANOVA) repeated measures analysis with a post-hoc Dunnett's test (GraphPad Prism, Version 4).” left out
# TRPV1 channels = target: T1, TRPV1 channels (Mus musculus, UniProt Q704Y3); assay: TRPV1 agonist-evoked inward current and depolarization in CA1 pyramidal neurons; type: cell-based; conditions: 12-(S)-HPETE 100 nM bath-applied
# T1 construct: whole-cell recordings from acutely prepared brain slices from wild type C57BL/6 mice; from tissue; host or cells: acute coronal hippocampal slices from P14-P20 wild-type C57BL/6 mice: CA1 pyramidal neurons
# T1 sequence (Q704Y3 whole entry): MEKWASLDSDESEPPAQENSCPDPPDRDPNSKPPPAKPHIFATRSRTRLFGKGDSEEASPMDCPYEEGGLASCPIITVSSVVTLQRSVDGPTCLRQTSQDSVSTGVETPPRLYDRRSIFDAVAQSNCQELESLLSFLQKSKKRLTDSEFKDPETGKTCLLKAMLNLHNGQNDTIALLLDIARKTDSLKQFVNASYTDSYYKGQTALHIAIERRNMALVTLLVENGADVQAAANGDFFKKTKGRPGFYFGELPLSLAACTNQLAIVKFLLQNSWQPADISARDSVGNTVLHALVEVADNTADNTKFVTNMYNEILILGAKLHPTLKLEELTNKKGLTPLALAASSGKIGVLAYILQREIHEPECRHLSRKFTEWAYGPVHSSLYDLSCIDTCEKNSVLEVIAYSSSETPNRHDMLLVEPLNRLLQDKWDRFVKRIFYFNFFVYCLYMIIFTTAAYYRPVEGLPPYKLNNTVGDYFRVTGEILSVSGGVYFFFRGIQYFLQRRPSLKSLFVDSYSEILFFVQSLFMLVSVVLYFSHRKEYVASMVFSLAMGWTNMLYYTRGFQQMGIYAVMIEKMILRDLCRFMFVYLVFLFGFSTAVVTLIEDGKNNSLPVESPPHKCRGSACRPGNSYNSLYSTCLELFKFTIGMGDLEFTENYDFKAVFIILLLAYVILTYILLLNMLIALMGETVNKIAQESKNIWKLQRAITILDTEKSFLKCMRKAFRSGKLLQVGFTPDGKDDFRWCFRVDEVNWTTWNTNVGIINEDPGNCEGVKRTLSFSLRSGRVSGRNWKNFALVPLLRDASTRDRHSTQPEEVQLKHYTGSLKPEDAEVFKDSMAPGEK
# hippocampal area CA1 = conditions: in vivo treatment of animals after the induction of febrile seizures; cited from earlier work
smiles,measurement,setting,value
O=c1cc(-c2ccccc2)oc2cc(O)c(O)c(O)c12 [baicalein],cells with potentiation (greater than 125% of control 20 minutes following the HFS),[1]; baicalein 500 nM bath-applied,four of ten
same,EPSC amplitudes 15-20 minutes post-HFS,"[1]; baicalein 500 nM bath-applied, n=10",129.6±20.3 % of control values before HFS
same,cells recorded from with intracellular baicalein that had LTD,[1]; patch pipette solution containing 140 nM baicalein,4 of 12
same,EPSC amplitudes 15-20 minutes post-HFS with intracellular baicalein,"[1]; patch pipette solution containing 140 nM baicalein, n=12",110.8±15.4 % of control values before HFS
Nc1nc2c(ncn2[C@@H]2O[C@H](COP(=O)(O)OP(O)(O)=S)[C@@H](O)[C@H]2O)c(=O)[nH]1 [GDPβS],cells recorded from with intracellular GDPβS that had LTD,[1]; patch pipette solution containing 250 μM GDPβS,6 of 10
same,EPSC amplitudes 15-20 minutes post-HFS with intracellular GDPβS,"[1]; patch pipette solution containing 250 μM GDPβS, n=10",88.2±10.6 % of control values before HFS
"N[C@H](CCCP(=O)(O)O)C(=O)O [D-AP5, D(−)-2-amino-5-phosphonovaleric acid]",EPSC amplitudes 15-20 minutes post-HFS,"[1]; D-AP5 50 μM in bath, P<0.001, n=26, LTD not prevented",62.0±5.3 % of control values before HFS
Cc1c(C(=O)NN2CCCCC2)nn(-c2ccc(Cl)cc2Cl)c1-c1ccc(I)cc1 [AM251],EPSC amplitudes 15-20 minutes post-HFS,"[1]; AM251 2 μM bath-applied, n=8",48.6±5.3 % of control values before HFS
same,"EPSC amplitudes after 10-15 minutes in both WIN 55,212-2 and AM251","[2]; AM251 2 μM applied before WIN 55,212-2 1 μM, n=5","101.7±8.9 % of pre-WIN 55,212-2 control values"
N.N.N.N.N.N.N.N.N.N.N.N.N.N.[Cl-].[Cl-].[Cl-].[Cl-].[Cl-].[Cl-].[O-2].[O-2].[Ru+3].[Ru+3].[Ru+4] [ruthenium red],peak heat-evoked inward current in ruthenium red,[3],9.3±7.7 pA
"Cc1c(C(=O)c2cccc3ccccc23)c2cccc3c2n1[C@H](CN1CCOCC1)CO3 [WIN 55,212-2]",EPSC amplitudes 15-20 minutes post-HFS,"[1]; pre-treatment with WIN 55,212-2 1 μM for at least ten minutes, n=12","51.3±7.5 % of control values in WIN55,212-2 before HFS"
same,"EPSC amplitudes after 10-15 minutes in WIN 55,212-2 alone","[2]; WIN 55,212-2 1 μM bath-applied, n=14",66.1±7.9 % of pre-drug control values
"O=C(O)CN(CC(=O)O)c1ccccc1OCCOc1ccccc1N(CC(=O)O)CC(=O)O [BAPTA, 1,2-bis(o-aminophenoxy)ethane-N,N,N′,N′-tetraacetic acid]",cells recorded from with intracellular BAPTA that had LTD,[1]; patch pipette solution containing 25-40 mM BAPTA,6 of 14
same,EPSC amplitudes 15-20 minutes post-HFS with intracellular BAPTA,"[1]; patch pipette solution containing 25-40 mM BAPTA, n=14",90.5±8.5 % of control values before HFS
"CCCCC/C=C\C[C@@H](/C=C/C=C\C/C=C\CCCC(=O)O)OO [12-(S)-HPETE, 12-(S)-Hydroperoxyeicosa-5Z, 8Z, 10E, 14Z-tetraenoic acid]",fEPSP slopes after 10-15 minutes in 12-(S)-HPETE,[4],99.0±3.5 % of pre-drug control values
same,average synaptic failures in 12-(S)-HPETE,[5],89.7±3.0%
same,EPSC amplitudes 15-20 minutes post-HFS,"[1]; HFS after 12-(S)-HPETE 100 nM (occlusion), n=6",98.7±15.3 % of control values in 12-(S)-HPETE before HFS
same,EPSC amplitudes after 10-15 minutes in 12-(S)-HPETE in TRPV1−/− mice,[6],109.0±6.8 % of pre-drug control values
same,12-(S)-HPETE-evoked current in CA1 neuron,TRPV1 channels,induces an inward current
same,EPSC amplitudes after 10-15 minutes in 12-(S)-HPETE,"[2]; 12-(S)-HPETE 100 nM bath-applied, n=8",40.6±11.7 % of pre-drug control values
Cc1c(C(=O)NN2CCCCC2)nn(-c2ccc(Cl)cc2Cl)c1-c1ccc(Cl)cc1 [SR141716A],emergence of long-term limbic hyperexcitability,hippocampal area CA1,prevented the emergence of long-term limbic hyperexcitability
same,hyperexcitability in hippocampal area CA1,hippocampal area CA1,reduced hyperexcitability in hippocampal area CA1
same,EPSC amplitudes 15-20 minutes post-HFS,"[1]; SR141716A 2-5 μM bath-applied, n=10, control LTD 62.0±5.3%",110.6±19.3 % of control values before HFS
same,EPSC amplitudes after 10-15 minutes in capsaicin and in the presence of SR141716A,"[2]; SR141716A 2 μM pretreatment, capsaicin 1 μM, n=6",102.8±9.2 % of pre-capsaicin control values
same,EPSC amplitudes after 10-15 minutes in 12-(S)-HPETE and in the presence of SR141716A,"[2]; SR141716A 2 μM, 12-(S)-HPETE 100 nM, n=5",106.9±5.5 % of pre-12-(S)-HPETE control values
COC(=O)[C@@H](N)CCCNC(=N)N[N+](=O)[O-] [L-NAME],EPSC amplitudes 15-20 minutes post-HFS,"[1]; 200 μM L-NAME bath applied 10 minutes prior to HFS, n=5",46.3±10.4 % of control values before HFS
C=C(C)[C@]12C[C@@H](C)[C@@]34O[C@](Cc5ccccc5)(O[C@@H]1[C@@H]3C=C(COC(=O)Cc1cc(I)c(O)c(OC)c1)C[C@]1(O)C(=O)C(C)=C[C@@H]41)O2 [5′-Iodoresiniferatoxin],EPSC amplitudes 15-20 minutes post-HFS in 5′-Iodoresiniferatoxin,"[1]; 5′-Iodoresiniferatoxin 100 nM bath applied prior to HFS, n=7",96.2±13.6 % of control values before HFS
